Data reported in PubChem BioAssay AID1259407 (Chemical Carcinogenesis Research Information System (CCRIS), 2018).
Entries after “also recorded” stand apart in the source; their conditions may differ. Activity calls are given as the source filed them. The rule behind the calls is not given here.

Tested on: CCRIS mutagenicity, Ames/micronucleus/aberration tests
Test: CCRIS mutagenicity studies
[1] = Test System: AMES SALMONELLA TYPHIMURIUM, Strain/Indicator: TA97, Metabolic Activation: NONE, Method: PREINCUBATION
[2] = Test System: AMES SALMONELLA TYPHIMURIUM, Strain/Indicator: TA97, Metabolic Activation: RAT, LIVER, S-9, AROCLOR 1254 (10%), Method: PREINCUBATION
[3] = Test System: AMES SALMONELLA TYPHIMURIUM, Strain/Indicator: TA98, Metabolic Activation: NONE, Method: PREINCUBATION
[4] = Test System: AMES SALMONELLA TYPHIMURIUM, Strain/Indicator: TA98, Metabolic Activation: RAT, LIVER, S-9, AROCLOR 1254 (10%), Method: PREINCUBATION
[5] = Test System: AMES SALMONELLA TYPHIMURIUM, Strain/Indicator: TA100, Metabolic Activation: NONE, Method: PREINCUBATION
[6] = Test System: AMES SALMONELLA TYPHIMURIUM, Strain/Indicator: TA100, Metabolic Activation: RAT, LIVER, S-9, AROCLOR 1254 (10%), Method: PREINCUBATION

For `CCSC(C)CC1CC(=O)C(/C(CC)=N/OC/C=C/Cl)=C(O)C1` (configuration not stated), the mutagenic call (End Point: In vitro chromosomal aberrations, Test System: Chinese hamster ovary (CHO) cells, Metabolic Activation: None) was “inactive; negative (purity 96.1%); also recorded: active; positive (structural changes; purity 81.4%)”, the mutagenic call (End Point: In vitro chromosomal aberrations, Test System: Chinese hamster ovary (CHO) cells, Metabolic Activation: Rat, liver, S-9, Aroclor 1254) was “inactive; negative (purity 96.1%)” and the mutagenic call (End Point: In vivo chromosomal aberrations, Test System: Bone marrow, Species: Rat, Strain/Sex: Sprague-Dawley/Female, Route: Gavage) was “inactive; negative (purity 83.3%)”. For the same compound, the mutagenic call (End Point: In vivo chromosomal aberrations, Test System: Bone marrow, Species: Rat, Strain/Sex: Sprague-Dawley/Male, Route: Gavage) was “inactive; negative (purity 83.3%)”, the mutagenic call (Test System: Ames Salmonella typhimurium, Strain/Indicator: TA98, Metabolic Activation: None, Method: Standard Plate) was “inactive; negative (purity 83.3%)” and the mutagenic call (Test System: Ames Salmonella typhimurium, Strain/Indicator: TA98, Metabolic Activation: Rat, liver, S-9, Aroclor, Method: Standard Plate) was “inactive; negative (purity 83.3%)”. For the same compound, the mutagenic call (Test System: Ames Salmonella typhimurium, Strain/Indicator: TA100, Metabolic Activation: None, Method: Standard Plate) was “inactive; negative (purity 83.3%)”, the mutagenic call (Test System: Ames Salmonella typhimurium, Strain/Indicator: TA100, Metabolic Activation: Rat, liver, S-9, Aroclor, Method: Standard Plate) was “inactive; negative (purity 83.3%)” and the mutagenic call (Test System: Ames Salmonella typhimurium, Strain/Indicator: TA1535, Metabolic Activation: None, Method: Standard Plate) was “inactive; negative (purity 83.3%)”. The mutagenic call (Test System: Ames Salmonella typhimurium, Strain/Indicator: TA1535, Metabolic Activation: Rat, liver, S-9, Aroclor, Method: Standard Plate) was “inactive; negative (purity 83.3%)”, the mutagenic call (Test System: Ames Salmonella typhimurium, Strain/Indicator: TA1537, Metabolic Activation: None, Method: Standard Plate) was “inactive; negative (purity 83.3%)” and the mutagenic call (Test System: Ames Salmonella typhimurium, Strain/Indicator: TA1537, Metabolic Activation: Rat, liver, S-9, Aroclor, Method: Standard Plate) was “inactive; negative (purity 83.3%)”. The mutagenic call (Test System: E. coli, Strain/Indicator: WP2uvrA, Metabolic Activation: None, Method: Standard Plate) was “inactive; negative (purity 83.3%)”, the mutagenic call (Test System: E. coli, Strain/Indicator: WP2uvrA, Metabolic Activation: Rat, liver, S-9, Aroclor, Method: Standard Plate) was “inactive; negative (purity 83.3%)” and the mutagenic call (Test System: UDS Mouse hepatocytes, Strain/Indicator: Thymidine incorporation, Metabolic Activation: Activation in whole animal, Method: Autoradiography) was “inactive; negative (purity 83.3%)”.
For `O=P(OC(CCl)CCl)(OC(CCl)CCl)OC(CCl)CCl`, the mutagenic call (Test System: AMES SALMONELLA TYPHIMURIUM, Strain/Indicator: TA97, Metabolic Activation: HAMSTER, LIVER, S-9, AROCLOR 1254 (10%), Method: PREINCUBATION) was “active; positive”, the mutagenic call [1] was “inactive; negative” and the mutagenic call [2] was “inactive; negative”. For the same compound, the mutagenic call (Test System: AMES SALMONELLA TYPHIMURIUM, Strain/Indicator: TA98, Metabolic Activation: HAMSTER, LIVER, S-9, AROCLOR 1254 (10%), Method: PREINCUBATION) was “inactive; negative”, the mutagenic call [3] was “inactive; negative” and the mutagenic call [4] was “inactive; negative”. The mutagenic call (Test System: AMES SALMONELLA TYPHIMURIUM, Strain/Indicator: TA100, Metabolic Activation: HAMSTER, LIVER, S-9, AROCLOR 1254 (10%), Method: PREINCUBATION) was “active; positive”, the mutagenic call [5] was “inactive; negative” and the mutagenic call (Test System: AMES SALMONELLA TYPHIMURIUM, Strain/Indicator: TA100, Metabolic Activation: RAT, LIVER, HEPATOCYTES, PHENOBARBITAL, Method: PREINCUBATION) was “inactive; negative”. For the same compound, the mutagenic call (Test System: AMES SALMONELLA TYPHIMURIUM, Strain/Indicator: TA100, Metabolic Activation: RAT, LIVER, HEPATOCYTES, Method: PREINCUBATION) was “active; positive”, the mutagenic call (Test System: AMES SALMONELLA TYPHIMURIUM, Strain/Indicator: TA100, Metabolic Activation: RAT, LIVER, MICROSOMES, PHENOBARBITAL, Method: STANDARD PLATE) was “active; positive” and the mutagenic call [6] was “inactive; negative”. The mutagenic call (Test System: AMES SALMONELLA TYPHIMURIUM, Strain/Indicator: TA100, Metabolic Activation: RAT, LIVER, S-9, PHENOBARBITAL, Method: STANDARD PLATE) was “active; positive”, the mutagenic call (Test System: AMES SALMONELLA TYPHIMURIUM, Strain/Indicator: TA100, Metabolic Activation: RAT, LIVER, S-9, Method: STANDARD PLATE) was “inactive; negative” and the mutagenic call (Test System: AMES SALMONELLA TYPHIMURIUM, Strain/Indicator: TA1535, Metabolic Activation: HAMSTER, LIVER, S-9, AROCLOR 1254 (10%), Method: PREINCUBATION) was “active; positive”. The mutagenic call (Test System: AMES SALMONELLA TYPHIMURIUM, Strain/Indicator: TA1535, Metabolic Activation: NONE, Method: PREINCUBATION) was “inactive; negative”, the mutagenic call (Test System: AMES SALMONELLA TYPHIMURIUM, Strain/Indicator: TA1535, Metabolic Activation: RAT, LIVER, S-9, AROCLOR 1254 (10%), Method: PREINCUBATION) was “active; positive” and the mutagenic call (Test System: AMES SALMONELLA TYPHIMURIUM, Strain/Indicator: TA1537, Metabolic Activation: HAMSTER, LIVER, S-9, AROCLOR 1254 (10%), Method: PREINCUBATION) was “inactive; negative”. For the same compound, the mutagenic call (Test System: AMES SALMONELLA TYPHIMURIUM, Strain/Indicator: TA1537, Metabolic Activation: NONE, Method: PREINCUBATION) was “inactive; negative”, the mutagenic call (Test System: AMES SALMONELLA TYPHIMURIUM, Strain/Indicator: TA1537, Metabolic Activation: RAT, LIVER, S-9, AROCLOR 1254 (10%), Method: PREINCUBATION) was “inactive; negative” and the mutagenic call (Test System: CHINESE HAMSTER V-79, Strain/Indicator: V-79/6-THIOGUANINE, Metabolic Activation: RAT, LIVER, MICROSOMES, PHENOBARBITAL) was “inactive; negative”. The mutagenic call (Test System: UDS RODENT HEPATOCYTES, Strain/Indicator: THY INCORP (NON-S-PHASE), Metabolic Activation: RAT, LIVER, HEPATOCYTES, PHENOBARBITAL, Method: LIQUID SCINTILLATION COUNTING) was “inactive; negative” and the mutagenic call (Test System: UDS RODENT HEPATOCYTES, Strain/Indicator: THY INCORP (NON-S-PHASE), Metabolic Activation: RAT, LIVER, HEPATOCYTES, Method: LIQUID SCINTILLATION COUNTING) was “inactive; negative”.
With `C1OC1C1CO1` (configuration not stated) the mutagenic call (End Point: IN VITRO CHROMOSOMAL ABERRATIONS, Test System: HUMAN PERIPHERAL LYMPHOCYTES, Metabolic Activation: NONE, Method: FISH (DUAL COLOR FOR CHROMOSOMES 7, 8, 12 AND X)) was “active; positive (hyperdiploidy of chromosomes 12 and x)”, the mutagenic call (End Point: IN VITRO MICRONUCLEUS, Test System: HUMAN PERIPHERAL LYMPHOCYTES, Metabolic Activation: NONE) was “active; positive” and the mutagenic call (Test System: AMES SALMONELLA TYPHIMURIUM, Strain/Indicator: TA98, Metabolic Activation: NONE, Method: STANDARD PLATE) was “active; positive”. For the same compound, the mutagenic call (Test System: AMES SALMONELLA TYPHIMURIUM, Strain/Indicator: TA100, Metabolic Activation: NONE, Method: STANDARD PLATE) was “active; positive”, the mutagenic call (Test System: AMES SALMONELLA TYPHIMURIUM, Strain/Indicator: TA100, Metabolic Activation: RAT, LIVER, S-9, AROCLOR 1254, Method: STANDARD PLATE) was “active; positive” and the mutagenic call (Test System: AMES SALMONELLA TYPHIMURIUM, Strain/Indicator: TA102, Metabolic Activation: NONE, Method: STANDARD PLATE) was “active; positive”. For the same compound, the mutagenic call (Test System: AMES SALMONELLA TYPHIMURIUM, Strain/Indicator: TA1535, Metabolic Activation: NONE, Method: STANDARD PLATE) was “active; positive”, the mutagenic call (Test System: AMES SALMONELLA TYPHIMURIUM, Strain/Indicator: TA7004, Metabolic Activation: NONE, Method: STANDARD PLATE) was “inactive; negative” and the mutagenic call (Test System: AMES SALMONELLA TYPHIMURIUM, Strain/Indicator: TA7005, Metabolic Activation: NONE, Method: STANDARD PLATE) was “inactive; negative”. The mutagenic call (Test System: CHINESE HAMSTER V-79, Strain/Indicator: V-79/6-THIOGUANINE, Metabolic Activation: NONE, Method: FLASK ASSAY) was “active; positive” and the mutagenic call (Test System: UDS MOUSE EPIDERMIS IN VIVO/IN VITRO, Strain/Indicator: HOS:HR-1/THYMIDINE INCORPORATION, Metabolic Activation: NONE, Method: LIQUID SCINTILLATION) was “active; positive”.
`COC(=O)c1ccc(/C=N/n2nnc3c([nH]c4ccccc43)c2=O)cc1` was tested, and the mutagenic call [1] was “active; positive”, the mutagenic call [2] was “active; positive” and the mutagenic call [3] was “active; positive”. The mutagenic call [4] was “active; positive”, the mutagenic call [5] was “inactive; negative” and the mutagenic call [6] was “active; positive”. The mutagenic call (Test System: AMES SALMONELLA TYPHIMURIUM, Strain/Indicator: TA102, Metabolic Activation: NONE, Method: PREINCUBATION) was “inactive; negative” and the mutagenic call (Test System: AMES SALMONELLA TYPHIMURIUM, Strain/Indicator: TA102, Metabolic Activation: RAT, LIVER, S-9, AROCLOR 1254 (10%), Method: PREINCUBATION) was “active; positive”.
